Assay results reported in patent US20080108603A1, “COMBINATION THERAPY FOR THE TREATMENT OF PAIN” (priority 2006, published 2008).
“Also recorded” adds a separate entry of the source.

Key:
[1] = system: adult male rats; assay: Postincisional hypersensitivity model of postoperative pain (paw incision, withdrawal threshold to von Frey filaments); assay type: in vivo, rat; conditions: intrathecal (i.t.) single drug; for anti-hypersensitivity effect (mechanical hypersensitivity), single drug: 24 h after paw incision surgery, 210 min observation
Experimental: Animal preparation: Following Animal Care and Use Committee approval, an intrathecal (i.t.) catheter with tip in the lumbar space is inserted as previously described in adult male rats weighing 250 g (Yaksh and Rudy, Physiol Behav. 1976, 7, 1032-1036). One week following the insertion of the i.t. catheter, paw incision surgery is performed as previously described (Brennan et al., Pain 1996, 64, 493-501). Briefly, animals are anesthetized with halothane, and a 1-cm long incision is made in the plantar aspect of the left hind paw starting 0.5 cm from the edge of the heel toward the toe after sterile preparation with 70% ethanol. The plantaris muscle is elevated and incised longitudinally. The wound is closed with 2 mattress sutures of 5.0 silk. Subsequently, withdrawal threshold to von Frey filaments is determined one day after surgery (Chaplanet al., J. Neurosci. Methods, 1994, 53, 55-63). For all testing but pilot dose ranging studies, investigators are blinded to study drug administration. A cut off value of 22 g is used.
Experimental Design: Twenty-four hours after paw incision surgery, single drugs and their combinations are studied: T-62, morphine and NBQX.
Single drug injection: For single drug administration, a volume containing 5 μL drug is used, followed by 10 μL of saline. The anti-hypersensitivity effects for single drugs at three doses with logarithmic spacing are studied over a 210 min observation period with testing at 30 min interval. Dose response curves are first constructed, and ED40 values for single drugs are then determined at the time of peak effect.
Drug interaction: For the combination of T-62 with morphine and NBQX, two injections are performed since the time of peak effect for morphine and NBQX is 30 min earlier than that of T-62 (T-62 is injected 30 min before drug injections). Paw withdrawal thresholds are determined before surgery, before drug injection, and 30, 60, 90, 120, 150, 180, and 210 min after the second drug injection. In addition, a fixed fractional dose ratio of 1:1 (w:w) is used for the combination of T-62 with morphine and NBQX. The dose response curves are then constructed for the combined drugs, and the ED40 values of the combined drugs are calculated at the time point of peak effect. Subsequently, isobolograms are constructed based on the ED40 values from single and combined drug administration.
Materials: T-62 may be obtained from King Pharmaceuticals (Cary, N.C.). T-62 is dissolved in saline with 20% DMSO. Morphine may be purchased from Astra Pharmaceutical Products, Inc. (Westborough, Mass.). NBQX and the remaining chemicals may be purchased from Sigma Chemical Co. (St. Louis, Mo.). Saline is used as vehicle for morphine and NBQX.
Data analysis: Data are presented as mean ±S.E. Withdrawal threshold data are analyzed by two-way analysis of variance followed by Fisher's LSD test. P<0.05 is considered significant. Isobolograms are statistically analyzed by student T test.

[2] = biological target: T1, adenosine A1 receptors (Rattus norvegicus, UniProt P25099); conditions: from Li et al., Pan et al., U.S. Pat. No. 6,248,774 and 6,489,356; cited from earlier work
T1 sequence (P25099 1-326): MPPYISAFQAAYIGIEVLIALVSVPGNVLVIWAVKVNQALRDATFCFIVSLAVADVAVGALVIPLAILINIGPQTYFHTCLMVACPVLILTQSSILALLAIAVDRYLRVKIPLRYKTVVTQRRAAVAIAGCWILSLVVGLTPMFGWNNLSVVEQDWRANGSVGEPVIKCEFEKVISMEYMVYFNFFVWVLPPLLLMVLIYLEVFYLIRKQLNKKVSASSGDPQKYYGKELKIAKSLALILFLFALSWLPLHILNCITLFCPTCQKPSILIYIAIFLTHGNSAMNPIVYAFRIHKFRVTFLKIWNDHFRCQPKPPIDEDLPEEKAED

[3] = system: male Sprague-Dawley rats; assay: Neuropathic pain model (Chung model, spinal nerve ligation, withdrawal threshold to von Frey filaments); assay type: in vivo, rat; conditions: for anti-allodynic effect (withdrawal threshold): single intrathecal injection, at least 4 weeks after spinal nerve ligation, up to 20 hr
From the text: Spinal Nerve Ligation: After Animal Care and Use Committee approval, male Sprague-Dawley rats (Harlan, Indianapolis, Ind., USA) weighing 180-200 g undergo anesthesia as previously described by Kim and Chung (Pain 1992, 50, 355-363). Briefly, under general anesthesia with inhalational halothane, the left L5 and L6 spinal nerves are identified through a small laminotomy and tightly ligated. Approximately one week later, an intrathecal catheter is placed under general anesthesia by insertion under direct vision of a polyethylene catheter through a small slit in the dura at the cisterna magnum, and advanced 8.5 cm such that the catheter tip resides in the lower lumbar intrathecal space. Animals are studied approximately one week later. Ligation of the lumbar spinal nerves results in a primarily unilateral increase in the sensitivity to light touch on the operated side. Sensitivity is assessed via application of calibrated von Frey filaments. The withdrawal threshold is determined using an up down method as previously described by Chaplan et al. (J. Neurosci. Methods 1994, 53, 55-63).
Experimental Design: Animals receive, at least 4 weeks after spinal nerve ligation surgery, and at least 1 week after intrathecal catheter insertion, single injections of vehicle (β-cyclodextrin) or the drug substance, using a randomized and blinded protocol. Withdrawal thresholds are determined at intervals for up to 20 hr after injection.

| SMILES | time of peak effect after injection [1] [min] | anti-hypersensitivity effect (mechanical hypersensitivity), single drug [1] | effect on inflammatory and neuropathic pain [2] | anti-allodynic effect (withdrawal threshold) [3] | relative potency among the three enhancers ([3]; Chung model of chronic neuropathic pain, FIG. 8) |
| --- | --- | --- | --- | --- | --- |
| CN1CC[C@]23c4c5ccc(O)c4O[C@H]2[C@@H](O)C=C[C@H]3[C@H]1C5 [Morphine, morphine] | 30 | reduces mechanical hypersensitivity in a time and dose dependent manner | – | – | – |
| Nc1sc2c(c1C(=O)c1ccc(Cl)cc1)CCCC2 [T-62, (2-amino-4,5,6,7-tetrahydrobenzo[b]thiophen-3-yl)(4-chlorophenyl)methanone] | – | modest effect; also recorded: reduced mechanical hypersensitivity in a time dependent manner | reduce inflammatory and neuropathic pain | dose-dependent anti-allodynic effects | – |
| NS(=O)(=O)c1cccc2c1c([N+](=O)[O-])cc1nc(O)c(O)nc12 [NBQX, 2,3-dihydroxy-6-nitro-7-sulfamoylbenzo(f)quinoxaline] | 30 | reduces the mechanical hypersensitivity in a time and dose dependent manner | – | – | – |
| Nc1sc2c(c1C(=O)c1ccccc1)CCS2 [formula (Ib)] | – | – | – | dose-dependent anti-allodynic effects | – |
| Nc1sc2c(c1C(=O)c1cccc3ccccc13)CCC2 [formula (Ic)] | – | – | – | dose-dependent anti-allodynic effects | most potent |
